Reference: the NIST ThermoML archive (doi:10.1021/je030226s)
Numbers after ± are expanded uncertainties.

Tests used:
[1] = refractive index (Na D-line) (dimensionless); xn = mol fraction of the nth substance listed; conditions: 101.32 kPa, Liquid
[2] = xn = mol fraction of the nth substance listed; conditions: 101.32 kPa, Liquid

CCCCCl [1-chlorobutane] + CO
refractive index ([1]; 288.15 K, x2 = 0): 1.4045 ± 0.0006
refractive index ([1]; 288.15 K, x2 = 0.05): 1.4032 ± 0.0006
refractive index ([1]; 288.15 K, x2 = 0.1): 1.4015 ± 0.0006
refractive index ([1]; 288.15 K, x2 = 0.2): 1.3978 ± 0.0006
refractive index ([1]; 288.15 K, x2 = 0.3): 1.3936 ± 0.0006
refractive index ([1]; 288.15 K, x2 = 0.4): 1.3885 ± 0.0006
refractive index ([1]; 288.15 K, x2 = 0.5): 1.3827 ± 0.0006
refractive index ([1]; 288.15 K, x2 = 0.6): 1.3759 ± 0.0006
refractive index ([1]; 288.15 K, x2 = 0.7): 1.3679 ± 0.0006
refractive index ([1]; 288.15 K, x2 = 0.8): 1.3579 ± 0.0006
refractive index ([1]; 288.15 K, x2 = 0.9): 1.3457 ± 0.0006
refractive index ([1]; 288.15 K, x2 = 0.95): 1.3384 ± 0.0006
refractive index ([1]; 298.15 K, x2 = 0): 1.3993 ± 0.0006
refractive index ([1]; 298.15 K, x2 = 0.05): 1.398 ± 0.0006
refractive index ([1]; 298.15 K, x2 = 0.1): 1.3964 ± 0.0006
refractive index ([1]; 298.15 K, x2 = 0.2): 1.3927 ± 0.0006
refractive index ([1]; 298.15 K, x2 = 0.3): 1.3885 ± 0.0006
refractive index ([1]; 298.15 K, x2 = 0.4): 1.3835 ± 0.0006
refractive index ([1]; 298.15 K, x2 = 0.5): 1.3778 ± 0.0006
refractive index ([1]; 298.15 K, x2 = 0.6): 1.371 ± 0.0006
refractive index ([1]; 298.15 K, x2 = 0.7): 1.3628 ± 0.0006
refractive index ([1]; 298.15 K, x2 = 0.8): 1.3529 ± 0.0006
refractive index ([1]; 298.15 K, x2 = 0.9): 1.3413 ± 0.0006
refractive index ([1]; 298.15 K, x2 = 0.95): 1.3342 ± 0.0006
refractive index ([1]; 308.15 K, x2 = 0): 1.3941 ± 0.0006
refractive index ([1]; 308.15 K, x2 = 0.05): 1.3928 ± 0.0006
refractive index ([1]; 308.15 K, x2 = 0.1): 1.3912 ± 0.0006
refractive index ([1]; 308.15 K, x2 = 0.2): 1.3877 ± 0.0006
refractive index ([1]; 308.15 K, x2 = 0.3): 1.3834 ± 0.0006
refractive index ([1]; 308.15 K, x2 = 0.4): 1.3785 ± 0.0006
refractive index ([1]; 308.15 K, x2 = 0.5): 1.3728 ± 0.0006
refractive index ([1]; 308.15 K, x2 = 0.6): 1.366 ± 0.0006
refractive index ([1]; 308.15 K, x2 = 0.7): 1.3579 ± 0.0006
refractive index ([1]; 308.15 K, x2 = 0.8): 1.3478 ± 0.0006
refractive index ([1]; 308.15 K, x2 = 0.9): 1.3365 ± 0.0006
refractive index ([1]; 308.15 K, x2 = 0.95): 1.3298 ± 0.0006
mass density ([2]; 288.15 K, x2 = 0): 892.2 ± 0.6 kg/m3
viscosity ([2]; 288.15 K, x2 = 0): 0.472 ± 0.009 mPa·s
mass density ([2]; 288.15 K, x2 = 0.05): 889.6 ± 0.6 kg/m3
viscosity ([2]; 288.15 K, x2 = 0.05): 0.463 ± 0.009 mPa·s
mass density ([2]; 288.15 K, x2 = 0.1): 887.2 ± 0.6 kg/m3
viscosity ([2]; 288.15 K, x2 = 0.1): 0.462 ± 0.009 mPa·s
mass density ([2]; 288.15 K, x2 = 0.2): 882.4 ± 0.7 kg/m3
viscosity ([2]; 288.15 K, x2 = 0.2): 0.465 ± 0.009 mPa·s
mass density ([2]; 288.15 K, x2 = 0.3): 876.9 ± 0.7 kg/m3
viscosity ([2]; 288.15 K, x2 = 0.3): 0.478 ± 0.009 mPa·s
mass density ([2]; 288.15 K, x2 = 0.4): 870.6 ± 0.7 kg/m3
viscosity ([2]; 288.15 K, x2 = 0.4): 0.496 ± 0.009 mPa·s
mass density ([2]; 288.15 K, x2 = 0.5): 863.3 ± 0.7 kg/m3
viscosity ([2]; 288.15 K, x2 = 0.5): 0.516 ± 0.009 mPa·s
mass density ([2]; 288.15 K, x2 = 0.6): 854.6 ± 0.7 kg/m3
viscosity ([2]; 288.15 K, x2 = 0.6): 0.536 ± 0.009 mPa·s
mass density ([2]; 288.15 K, x2 = 0.7): 844.2 ± 0.8 kg/m3
viscosity ([2]; 288.15 K, x2 = 0.7): 0.559 ± 0.009 mPa·s
mass density ([2]; 288.15 K, x2 = 0.8): 831.7 ± 0.8 kg/m3
viscosity ([2]; 288.15 K, x2 = 0.8): 0.581 ± 0.009 mPa·s
mass density ([2]; 288.15 K, x2 = 0.9): 815.9 ± 0.9 kg/m3
viscosity ([2]; 288.15 K, x2 = 0.9): 0.601 ± 0.01 mPa·s
mass density ([2]; 288.15 K, x2 = 0.95): 806.6 ± 0.9 kg/m3
viscosity ([2]; 288.15 K, x2 = 0.95): 0.613 ± 0.01 mPa·s
mass density ([2]; 298.15 K, x2 = 0): 881 ± 0.7 kg/m3
viscosity ([2]; 298.15 K, x2 = 0): 0.423 ± 0.008 mPa·s
mass density ([2]; 298.15 K, x2 = 0.05): 878.4 ± 0.7 kg/m3
viscosity ([2]; 298.15 K, x2 = 0.05): 0.416 ± 0.008 mPa·s
mass density ([2]; 298.15 K, x2 = 0.1): 876.1 ± 0.7 kg/m3
viscosity ([2]; 298.15 K, x2 = 0.1): 0.413 ± 0.008 mPa·s
mass density ([2]; 298.15 K, x2 = 0.2): 871.2 ± 0.7 kg/m3
viscosity ([2]; 298.15 K, x2 = 0.2): 0.412 ± 0.008 mPa·s
mass density ([2]; 298.15 K, x2 = 0.3): 865.6 ± 0.7 kg/m3
viscosity ([2]; 298.15 K, x2 = 0.3): 0.421 ± 0.008 mPa·s
mass density ([2]; 298.15 K, x2 = 0.4): 859.6 ± 0.7 kg/m3
viscosity ([2]; 298.15 K, x2 = 0.4): 0.435 ± 0.008 mPa·s
mass density ([2]; 298.15 K, x2 = 0.5): 852.4 ± 0.7 kg/m3
viscosity ([2]; 298.15 K, x2 = 0.5): 0.45 ± 0.008 mPa·s
mass density ([2]; 298.15 K, x2 = 0.6): 843.9 ± 0.8 kg/m3
viscosity ([2]; 298.15 K, x2 = 0.6): 0.469 ± 0.009 mPa·s
mass density ([2]; 298.15 K, x2 = 0.7): 833.7 ± 0.8 kg/m3
viscosity ([2]; 298.15 K, x2 = 0.7): 0.489 ± 0.009 mPa·s
mass density ([2]; 298.15 K, x2 = 0.8): 821.4 ± 0.8 kg/m3
viscosity ([2]; 298.15 K, x2 = 0.8): 0.506 ± 0.009 mPa·s
mass density ([2]; 298.15 K, x2 = 0.9): 806 ± 0.9 kg/m3
viscosity ([2]; 298.15 K, x2 = 0.9): 0.521 ± 0.009 mPa·s
mass density ([2]; 298.15 K, x2 = 0.95): 796.9 ± 0.9 kg/m3
viscosity ([2]; 298.15 K, x2 = 0.95): 0.532 ± 0.009 mPa·s
mass density ([2]; 308.15 K, x2 = 0): 869.7 ± 0.7 kg/m3
viscosity ([2]; 308.15 K, x2 = 0): 0.382 ± 0.008 mPa·s
mass density ([2]; 308.15 K, x2 = 0.05): 867.1 ± 0.7 kg/m3
viscosity ([2]; 308.15 K, x2 = 0.05): 0.375 ± 0.008 mPa·s
mass density ([2]; 308.15 K, x2 = 0.1): 864.7 ± 0.7 kg/m3
viscosity ([2]; 308.15 K, x2 = 0.1): 0.374 ± 0.008 mPa·s
mass density ([2]; 308.15 K, x2 = 0.2): 859.9 ± 0.7 kg/m3
viscosity ([2]; 308.15 K, x2 = 0.2): 0.376 ± 0.008 mPa·s
mass density ([2]; 308.15 K, x2 = 0.3): 854.5 ± 0.7 kg/m3
viscosity ([2]; 308.15 K, x2 = 0.3): 0.382 ± 0.008 mPa·s
mass density ([2]; 308.15 K, x2 = 0.4): 848.4 ± 0.8 kg/m3
viscosity ([2]; 308.15 K, x2 = 0.4): 0.393 ± 0.008 mPa·s
mass density ([2]; 308.15 K, x2 = 0.5): 841.3 ± 0.8 kg/m3
viscosity ([2]; 308.15 K, x2 = 0.5): 0.407 ± 0.008 mPa·s
mass density ([2]; 308.15 K, x2 = 0.6): 833 ± 0.8 kg/m3
viscosity ([2]; 308.15 K, x2 = 0.6): 0.416 ± 0.008 mPa·s
mass density ([2]; 308.15 K, x2 = 0.7): 823.1 ± 0.8 kg/m3
viscosity ([2]; 308.15 K, x2 = 0.7): 0.431 ± 0.008 mPa·s
mass density ([2]; 308.15 K, x2 = 0.8): 811 ± 0.9 kg/m3
viscosity ([2]; 308.15 K, x2 = 0.8): 0.445 ± 0.008 mPa·s
mass density ([2]; 308.15 K, x2 = 0.9): 796 ± 0.9 kg/m3
viscosity ([2]; 308.15 K, x2 = 0.9): 0.457 ± 0.009 mPa·s
mass density ([2]; 308.15 K, x2 = 0.95): 787.2 ± 0.9 kg/m3
viscosity ([2]; 308.15 K, x2 = 0.95): 0.467 ± 0.009 mPa·s
